We go through 6 molecules from ChEMBL document CHEMBL1149514, “Tetrahydrofluorenones with conformationally restricted side chains as selective estrogen receptor beta ligands” (Bioorg Med Chem Lett, 2006).

Assay [1] has as its target Estrogen receptor beta (Homo sapiens, UniProt Q92731).
Description: Binding affinity to human recombinant ERbeta by scintillation proximity assay
Assay [2] has as its target T1, Estrogen receptor (Homo sapiens, UniProt P03372).
T1 sequence (P03372 whole entry): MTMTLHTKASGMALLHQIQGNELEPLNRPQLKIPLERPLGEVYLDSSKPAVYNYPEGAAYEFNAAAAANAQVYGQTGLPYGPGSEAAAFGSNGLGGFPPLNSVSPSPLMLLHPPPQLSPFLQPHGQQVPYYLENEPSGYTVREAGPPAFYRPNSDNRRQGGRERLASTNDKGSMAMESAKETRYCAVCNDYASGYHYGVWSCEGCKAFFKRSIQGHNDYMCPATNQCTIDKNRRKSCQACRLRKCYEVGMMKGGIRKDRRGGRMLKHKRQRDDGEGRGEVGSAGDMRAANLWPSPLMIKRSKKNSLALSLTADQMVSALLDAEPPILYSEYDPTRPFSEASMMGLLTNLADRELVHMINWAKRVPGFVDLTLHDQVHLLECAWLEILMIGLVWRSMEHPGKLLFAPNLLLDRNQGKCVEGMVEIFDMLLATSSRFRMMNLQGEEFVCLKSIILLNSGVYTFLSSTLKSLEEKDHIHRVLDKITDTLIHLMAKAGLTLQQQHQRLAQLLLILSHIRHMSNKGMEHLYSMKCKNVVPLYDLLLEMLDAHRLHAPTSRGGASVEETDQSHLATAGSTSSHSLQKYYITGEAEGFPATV
Description: Binding affinity to human recombinant ERalpha by scintillation proximity assay

Sequence of Estrogen receptor beta (Q92731 whole entry): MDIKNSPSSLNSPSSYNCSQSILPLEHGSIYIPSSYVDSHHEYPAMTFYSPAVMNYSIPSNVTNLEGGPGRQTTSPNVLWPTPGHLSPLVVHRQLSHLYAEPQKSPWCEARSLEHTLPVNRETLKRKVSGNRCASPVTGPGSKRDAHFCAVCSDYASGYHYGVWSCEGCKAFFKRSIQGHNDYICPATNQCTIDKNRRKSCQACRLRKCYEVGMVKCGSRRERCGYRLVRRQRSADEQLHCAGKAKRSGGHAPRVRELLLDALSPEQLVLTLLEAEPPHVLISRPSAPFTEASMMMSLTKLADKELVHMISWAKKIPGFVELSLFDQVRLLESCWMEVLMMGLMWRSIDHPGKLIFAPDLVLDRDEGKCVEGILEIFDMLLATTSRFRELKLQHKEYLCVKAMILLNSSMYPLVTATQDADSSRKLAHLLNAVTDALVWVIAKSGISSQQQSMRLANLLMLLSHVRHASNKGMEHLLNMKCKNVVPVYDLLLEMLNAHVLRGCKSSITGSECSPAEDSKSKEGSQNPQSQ

Take `CC[C@H]1CC[C@@H]2C[C@]13Cc1cc(O)ccc1C3=C(C)C2=O`: the 50% inhibitory concentration (IC50) in assay [1] is 45 nM; in assay [2], 310 nM.

On to `CCC[C@@H]1CC[C@@H]2C[C@]13Cc1cc(O)ccc1C3=C(C)C2=O`, for which the results for the IC50 in assay [1] and in assay [2] were 5 nM and 84 nM, respectively.

For `CC1=C2c3ccc(O)cc3C[C@@]23CCC[C@H](C3)C1=O`, the half-inhibitory concentration (IC50) in assay [1] is 11 nM; in assay [2] it was 414 nM.

Regarding `CCC[C@H]1CC[C@@H]2C[C@]13Cc1cc(O)ccc1C3=C(C)C2=O`, the IC50 in assay [1] is 141 nM; in assay [2], 605 nM.

On to `CC[C@@H]1CC[C@@H]2C[C@]13Cc1cc(O)ccc1C3=C(C)C2=O`, for which the values for the concentration for half-maximal inhibition (IC50) in assay [1] and in assay [2] were 5 nM and 146 nM, respectively.

`CC1=C2c3ccc(O)cc3C[C@@]23CC[C@H](C3)C1=O`: the results for the IC50 in assay [1] and in assay [2] were 12 nM and 793 nM, respectively.
